We go through 21 compounds from patent US20210101899A1, “INHIBITORS OF MUTANT ISOCITRATE DEHYDROGENASES AND COMPOSITIONS AND METHODS THEREOF” (IsoCure Biosciences Inc., priority 2016, published 2021).

Type in all cases: biochemical
The target of one experiment is IDH1 (R132C) (Homo sapiens, UniProt O75874, R132C). Kind of experiment: IDH enzyme assay, NADPH depletion by diaphorase/resazurin coupled detection. Particulars: pre-incubated with enzyme for 1 h at room temperature; 500 μM a-Ketoglutarate+15 μM NADPH; 10-dose, 3-fold dilution from 10 μM; read-out: Compound IC50 (nM) IDH1 (R132C). The protocol: (§1) Compounds were tested against 3 enzymes, as provided below. Compounds were tested in 10-dose IC50 mode with 3-fold serial dilution at a starting concentration of 10 μM. Control Compounds were tested in 10-dose IC50 mode with 3-fold serial dilution starting at 1 mM or 10 mM. Assay Format: The production or depletion of NADPH by IDH enzymes was measured by diaphorase/resazurin coupled detection. Fluorescence measurement: Ex/Em=535/590 by EnVision. Compounds were pre-incubated with enzyme for 1 h at room temperature. Standard substrate: 1500 μM a-Ketoglutarate+15 μM NADPH for IDH1 (R132H). 500 μM a-Ketoglutarate+15 μM NADPH for IDH1 (R132C). 65 μM Isocitrate+50 μM NADP for IDH1.
In general terms: Alamar Blue is a resazurin reagent that responds to reducing activity.

In a further experiment the target is IDH1 (R132H) (Homo sapiens, UniProt O75874, R132H). Described as above. Particulars: pre-incubated with enzyme for 1 h at room temperature; 1500 μM a-Ketoglutarate+15 μM NADPH; 10-dose, 3-fold dilution from 10 μM; read-out: Compound IC50 (nM) IDH1 (R132H). The protocol:
as §1

For a further experiment, the target named is IDH1 (Homo sapiens, UniProt O75874). Kind of experiment: IDH enzyme assay, NADPH production by diaphorase/resazurin coupled detection. The following applies: IDH1 WT; pre-incubated with enzyme for 1 h at room temperature; 65 μM Isocitrate+50 μM NADP; 10-dose, 3-fold dilution from 10 μM; read-out: Compound IC50 (nM) IDH1. The protocol: as §1
IDH1, sequence (O75874 whole entry): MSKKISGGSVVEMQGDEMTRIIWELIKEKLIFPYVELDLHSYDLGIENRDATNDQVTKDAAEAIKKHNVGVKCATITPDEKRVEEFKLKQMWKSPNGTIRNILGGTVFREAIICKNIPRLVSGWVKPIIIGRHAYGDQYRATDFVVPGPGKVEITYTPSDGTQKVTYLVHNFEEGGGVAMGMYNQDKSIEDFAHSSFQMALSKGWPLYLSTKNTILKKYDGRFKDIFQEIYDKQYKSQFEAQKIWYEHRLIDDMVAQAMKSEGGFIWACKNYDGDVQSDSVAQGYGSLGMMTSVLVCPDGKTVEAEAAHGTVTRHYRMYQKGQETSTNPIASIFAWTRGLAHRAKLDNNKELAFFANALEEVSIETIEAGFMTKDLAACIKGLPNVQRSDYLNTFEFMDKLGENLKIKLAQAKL

IDH1 (R132H), sequence (O75874 whole entry R132H): as the sequence (O75874 whole entry) above, with R132H counted along it
IDH1 (R132C), sequence (O75874 whole entry R132C): as the sequence (O75874 whole entry) above, with R132C counted along it

By IC50 is commonly meant the midpoint of a concentration-inhibition curve. For the compound `C=CC(=O)Nc1cccc(NC(=O)c2nn(Cc3ccc(F)cc3)c3c2CN(C(=O)c2ccc[nH]2)CC3C)c1` (stereo not shown) [ISO-2-4, N-(3-acrylamidophenyl)-1-(4-fluorobenzyl)-7-methyl-5-(1H-pyrrole-2-carbonyl)-4,5,6,7-tetrahydro-1H-pyrazolo[4,3-c]pyridine-3-carboxamide], the half-inhibitory concentration (IC50) on IDH1 (R132C) is 121 nM; at IDH1 (R132H), 49 nM; at IDH1, > 10000 nM.
`C=CC(=O)Nc1cc(NC(=O)c2nn(Cc3ccc(F)cc3)c3c2CN(C(=O)c2ccc[nH]2)CC3C)ccc1Cl` (stereo not shown) [ISO-2-29, N-(3-acrylamido-4-chlorophenyl)-1-(4-fluorobenzyl)-7-methyl-5-(1H-pyrrole-2-carbonyl)-4,5,6,7-tetrahydro-1H-pyrazolo [4,3-c]pyridine-3-carboxamide]: the concentration for half-maximal inhibition (IC50) was 61 nM at IDH1 (R132C) and 14 nM on IDH1 (R132H).
`C=CC(=O)N1CCC(NC(=O)c2nn(Cc3ccc(F)cc3)c3c2CN(C(=O)c2ccc[nH]2)CC3C)C1` (stereo not shown) [ISO-2-9, N-(1-acryloylpyrrolidin-3-yl)-1-(4-fluorobenzyl)-7-methyl-5-(1H-pyrrole-2-carbonyl)-4,5,6,7-tetrahydro-1H-pyrazolo[4,3-c]pyridine-3-carboxamide]: the IC50 on IDH1 (R132C), on IDH1 (R132H) and at IDH1 was > 10000 nM throughout.
On to `C=CC(=O)Nc1cc(F)ccc1Cn1nc(C(=O)Nc2cccc([C@H](C)O)c2)c2c1C(C)CN(C(=O)c1ccc[nH]1)C2` (stereo partly drawn) [ISO-2-7, 1-(2-acrylamido-4-fluorobenzyl)-N-(3-((S)-1-hydroxyethyl)phenyl)-7-methyl-5-(1H-pyrrole-2-carbonyl)-4,5,6,7-tetrahydro-1H-pyrazolo[4,3-c]pyridine-3-carboxamide], for which the results for the half-maximal inhibitory concentration (IC50) at IDH1 (R132C), on IDH1 (R132H) and on IDH1 were 247 nM, 153 nM and > 10000 nM, respectively.
On the same counts, the results for `C=CC(=O)N1CC(NC(=O)c2nn(Cc3ccc(F)cc3)c3c2CN(C(=O)c2ccc[nH]2)CC3C)C1` (stereo not shown) [ISO-2-10, N-(1-acryloylazetidin-3-yl)-1-(4-fluorobenzyl)-7-methyl-5-(1H-pyrrole-2-carbonyl)-4,5,6,7-tetrahydro-1H-pyrazolo[4,3-c]pyridine-3-carboxamide] are 9500 nM, > 10000 nM and > 10000 nM.
As for `CC1CN(C(=O)c2ccc[nH]2)Cc2c(C(=O)Nc3cccc(NC(=O)CCl)c3)nn(Cc3ccc(F)cc3)c21` (stereo not shown) [ISO-2-5, N-(3-(2-chloroacetamido)phenyl)-1-(4-fluorobenzyl)-7-methyl-5-(1H-pyrrole-2-carbonyl)-4,5,6,7-tetrahydro-1H-pyrazolo [4,3-c]pyridine-3-carboxamide], the concentration for half-maximal inhibition (IC50) on IDH1 (R132C) is 2 nM; on IDH1 (R132H) it was 3 nM; at IDH1, > 10000 nM.
Take `C=CC(=O)NCc1cc(Cn2nc(C(=O)Nc3cccc(C)c3)c3c2C(C)CN(C(=O)c2ccc[nH]2)C3)ccc1F` (stereo not shown) [ISO-2-2, 1-(3-(acrylamidomethyl)-4-fluorobenzyl)-7-methyl-5-(1H-pyrrole-2-carbonyl)-N-(m-tolyl)-4,5,6,7-tetrahydro-1H-pyrazolo[4,3-c]pyridine-3-carboxamide]: the concentration for half-maximal inhibition (IC50) at IDH1 (R132C) was 152 nM; on IDH1 (R132H), 33 nM; at IDH1 it was > 10000 nM.
For `C=CC(=O)Nc1cccc(CNC(=O)c2nn(Cc3ccc(F)cc3)c3c2CN(C(=O)c2ccc[nH]2)CC3C)c1` (stereo not shown) [ISO-2-32, N-(3-acrylamidobenzyl)-1-(4-fluorobenzyl)-7-methyl-5-(1H-pyrrole-2-carbonyl)-4,5,6,7-tetrahydro-1H-pyrazolo[4,3-c]pyridine-3-carboxamide], the values for the half-inhibitory concentration (IC50) on IDH1 (R132C) and at IDH1 (R132H) were 7500 nM and 3150 nM, respectively.
Consider `C=CC(=O)Nc1cc(NC(=O)c2nn(Cc3ccc(F)cc3)c3c2CN(C(=O)c2ccc[nH]2)C[C@H]3C)ccc1OC` [ISO-2-30-R], for which the values for the half-inhibitory concentration (IC50) at IDH1 (R132C), at IDH1 (R132H) and at IDH1 were 14 nM, 6 nM and 2210 nM, respectively.
For `C=CC(=O)N1CCc2ccc(NC(=O)c3nn(Cc4ccc(F)cc4)c4c3CN(C(=O)c3ccc[nH]3)CC4C)cc21` (stereo not shown) [ISO-2-31, N-(1-acryloylindolin-6-yl)-1-(4-fluorobenzyl)-7-methyl-5-(1H-pyrrole-2-carbonyl)-4,5,6,7-tetrahydro-1H-pyrazolo[4,3-c]pyridine-3-carboxamide], the half-maximal inhibitory concentration (IC50) on IDH1 (R132C) came to 27 nM; on IDH1 (R132H), 5 nM.
As for `C=CC(=O)NC1CC(NC(=O)c2nn(Cc3ccc(F)cc3)c3c2CN(C(=O)c2ccc[nH]2)CC3C)C1` (stereo not shown) [ISO-2-20, N-(3-acrylamidocyclobutyl)-1-(4-fluorobenzyl)-7-methyl-5-(1H-pyrrole-2-carbonyl)-4,5,6,7-tetrahydro-1H-pyrazolo[4,3-c]pyridine-3-carboxamide], the IC50 at IDH1 (R132C) was 7370 nM; at IDH1 (R132H) it was 5480 nM; at IDH1, > 10000 nM.
For `C=CC(=O)Nc1cc(NC(=O)c2nn(Cc3ccc(F)cc3)c3c2CN(C(=O)c2ccc[nH]2)CC3C)ccc1OC` (stereo not shown) [ISO-2-30, N-(3-acrylamido-4-methoxyphenyl)-1-(4-fluorobenzyl)-7-methyl-5-(1H-pyrrole-2-carbonyl)-4,5,6,7-tetrahydro-1H-pyrazolo [4,3-c]pyridine-3-carboxamide], the IC50 at IDH1 (R132C) is 8 nM; at IDH1 (R132H), 1 nM.
Consider `C=CC(=O)Nc1ccc(NC(=O)c2nn(Cc3ccc(F)cc3)c3c2CN(C(=O)c2ccc[nH]2)CC3C)s1` (stereo not shown) [ISO-2-19, N-(5-acrylamidothiophen-2-yl)-1-(4-fluorobenzyl)-7-methyl-5-(1H-pyrrole-2-carbonyl)-4,5,6,7-tetrahydro-1H-pyrazolo[4,3-c]pyridine-3-carboxamide], for which the IC50 on IDH1 (R132C) was determined as 35 nM; at IDH1 (R132H), 5 nM; at IDH1, 4780 nM.
Turning to `C=CC(=O)Nc1cc(NC(=O)c2nn(Cc3ccc(F)cc3)c3c2CN(C(=O)c2ccc[nH]2)C[C@@H]3C)ccc1OC` [ISO-2-30-S], the IC50 on IDH1 (R132C) was 1180 nM; at IDH1 (R132H), 839 nM.
For `C=CC(=O)Nc1ccc(NC(=O)c2nn(Cc3ccc(F)cc3)c3c2CN(C(=O)c2ccc[nH]2)CC3C)cc1` (stereo not shown) [ISO-2-25, N-(4-acrylamidophenyl)-1-(4-fluorobenzyl)-7-methyl-5-(1H-pyrrole-2-carbonyl)-4,5,6,7-tetrahydro-1H-pyrazolo[4,3-c]pyridine-3-carboxamide], the IC50 on IDH1 (R132C) is 0.8 nM; on IDH1 (R132H) it was 0.6 nM; at IDH1, 5740 nM.
Turning to `C=CC(=O)NCc1cc(F)ccc1Cn1nc(C(=O)Nc2cccc([C@H](C)O)c2)c2c1C(C)CN(C(=O)c1ccc[nH]1)C2` (stereo partly drawn) [ISO-2-8, 1-(2-(acrylamidomethyl)-4-fluorobenzyl)-N-(3-((S)-1-hydroxyethyl)phenyl)-7-methyl-5-(1H-pyrrole-2-carbonyl)-4,5,6,7-tetrahydro-1H-pyrazolo[4,3-c]pyridine-3-carboxamide], the IC50 on IDH1 (R132C) was 154 nM; at IDH1 (R132H) it was 52 nM; on IDH1, > 10000 nM.
`C=CC(=O)Nc1cccc(Cn2nc(C(=O)Nc3cccc(C)c3)c3c2C(C)CN(C(=O)c2ccc[nH]2)C3)c1` (stereo not shown) [ISO-2-27, 1-(3-acrylamidobenzyl)-7-methyl-5-(1H-pyrrole-2-carbonyl)-N-(m-tolyl)-4,5,6,7-tetrahydro-1H-pyrazolo[4,3-c]pyridine-3-carboxamide]: the results for the half-maximal inhibitory concentration (IC50) on IDH1 (R132C), on IDH1 (R132H) and at IDH1 were 127 nM, 25 nM and > 10000 nM, respectively.
`C=CC(=O)N1CCC(NC(=O)c2nn(Cc3ccc(F)cc3)c3c2CN(C(=O)c2ccc[nH]2)CC3C)CC1` (stereo not shown) [ISO-2-26, N-(1-acryloylpiperidin-4-yl)-1-(4-fluorobenzyl)-7-methyl-5-(1H-pyrrole-2-carbonyl)-4,5,6,7-tetrahydro-1H-pyrazolo[4,3-c]pyridine-3-carboxamide]: the IC50 on IDH1 (R132C), at IDH1 (R132H) and on IDH1 was > 10000 nM in each case.
Consider `C=CC(=O)Nc1ccc2c(Cn3nc(C(=O)Nc4cccc(C)c4)c4c3C(C)CN(C(=O)c3ccc[nH]3)C4)cccc2c1` (stereo not shown) [ISO-2-38, 1-((6-acrylamidonaphthalen-1-yl)methyl)-7-methyl-5-(1H-pyrrole-2-carbonyl)-N-(m-tolyl)-4,5,6,7-tetrahydro-1H-pyrazolo[4,3-c]pyridine-3-carboxamide], for which the 50% inhibitory concentration (IC50) on IDH1 (R132C) worked out at 4 nM; on IDH1 (R132H) it was 0.5 nM.
In the case of `Cc1cccc(NC(=O)c2nn(Cc3ccc(F)c(NC(=O)/C=C/CCl)c3)c3c2CN(C(=O)c2ccc[nH]2)CC3C)c1` (stereo not shown) [ISO-2-36, (E)-1-(3-(4-chlorobut-2-enamido)-4-fluorobenzyl)-7-methyl-5-(1H-pyrrole-2-carbonyl)-N-(m-tolyl)-4,5,6,7-tetrahydro-1H-pyrazolo[4,3-c]pyridine-3-carboxamide], the concentration for half-maximal inhibition (IC50) on IDH1 (R132C) was found to be 8 nM; on IDH1 (R132H), 0.5 nM.
Turning to `C=CC(=O)Nc1ccc(NC(=O)c2nn(Cc3ccc(F)cc3)c3c2CN(C(=O)c2ccc[nH]2)C[C@@H]3C)cc1` [ISO-2-25-S], the IC50 at IDH1 (R132C) is 7720 nM; at IDH1 (R132H), 1360 nM.
